In patent US20120245137A1 (Zalicus Pharmaceuticals Ltd., priority 2009, published 2012):
Where two headings read alike, the source gives them in different places.

What was measured:
Format in all cases: cell-based
[1] = target: T-type calcium channel (Homo sapiens, UniProt O43497); test: T-type channel blocking, FLIPR data (Table 6); conditions: CAv3.1
Text: (§1) Another method, high-throughput spectrophotometric assay, utilizes loading of the cell lines with a fluorescent dye sensitive to intracellular calcium concentration and subsequent examination of the effects of compounds on the ability of depolarization by potassium chloride or other means to alter intracellular calcium levels.

[2] = target: Human Cav 2.2 channels (Homo sapiens, UniProt Q00975); test: Fluorescent assay for CaV2.2 channels using potassium depolarization (VIPR/FLIPR); conditions: FLIPR data
Text: Human Cav 2.2 channels were stably expressed in HEK293 cells along with alpha2-delta and beta subunits of voltage-gated calcium channels. An inwardly rectifying potassium channel (Kir2.3) was also expressed in these cells to allow more precise control of the cell membrane potential by extracellular potassium concentration. At low bath potassium concentration, the membrane potential is relatively negative, and is depolarized as the bath potassium concentration is raised. In this way, the bath potassium concentration can be used to regulate the voltage-dependent conformations of the channels. […] After the incubation period, Cav2.2 channel opening is triggered by addition of higher concentration of potassium (70 mM final concentration) to further depolarize the cell. The degree of state-dependent block can be estimated from the inhibitory potency of compounds after incubation in different potassium concentrations.
Calcium influx through Cav 2.2 channels is determined using a calcium sensitive fluorescent dye in combination with a fluorescent plate reader. Fluorescent changes were measured with either a VIPR (Aurora Instruments) or FLIPR (Molecular Devices) plate reader.
1. Seed cells in Poly-D-Lysine Coated 96 or 384-well plate and keep in a 3rC-IO % C02 incubator overnight.
2. Remove media, wash cells with 0.2 mL (96-well plate) or 0.05 mL (384-well plate) Dulbecco's Phosphate Buffered Saline (D-PBS) with calcium & magnesium (Invitrogen; 14040).
3. Add 0.1 mL (96-well plate) or 0.05 mL (384-well plate) of 4˜M fluor-4 (Molecular Probes; F-14202) and 0.02% Pluronic acid (Molecular Probes; P-3(00) prepared in D-PBS with calcium & magnesium (Invitrogen; 14040) supplemented with 10 mM Glucose & 10 mM HepeslNaOH; pH 7.4.
4. Incubate in the dark at 25° C. for 60-70 min.
5. Remove dye, wash cells with 0.1 mL (96-well plate) or 0.06 mL (384-well plate) of 4, 12, 25, or 30 mM Potassium Pre-polarization Buffer (PPB).
6. Add 0.1 mL (96-well plate) or 0.03 mL (384-well plate) of 4, 12, 25, 30 mM PPB with or without test compound.
7. Incubate in the dark at 25° C. for 30 min
8. Read cell plate on VIPR instrument, Excitation=480 nm, Emission=535 nm.
9. With VIPR continuously reading, add 0.1 mL (96-well plate) or 0.03 mL (384-well plate) of Depolarization Buffer (DB), which is 2× the final assay concentration, to the cell plate.

[3] = target: CAv1.2 (Homo sapiens, UniProt Q13936); test: FLIPR data, CAv1.2 channel blocking (Table 6); conditions: for CAv1.2 IC50 Ratio closed/inact.: ratio closed/inactivated IC50
[4] = target: T-type calcium channel (Homo sapiens, UniProt O95180); test: T-type channel blocking, FLIPR data (Table 6)
Text: as §1

[5] = closed state, read-out: CAv2.2 IC50 Closed
[6] = inactivated state, read-out: CAv2.2 IC50 Inact.
[7] = closed state, read-out: CAv1.2 IC50 Closed
[8] = inactivated state, read-out: CAv1.2 IC50 Inact.
[9] = CAv3.2, closed state, read-out: CAv3.2 IC50 Closed
[10] = CAv3.2, inactivated state, read-out: CAv3.2 IC50 Inact.
[11] = CAv3.2, ratio closed/inactivated IC50

Sequence of Human Cav 2.2 channels (Q00975 whole entry): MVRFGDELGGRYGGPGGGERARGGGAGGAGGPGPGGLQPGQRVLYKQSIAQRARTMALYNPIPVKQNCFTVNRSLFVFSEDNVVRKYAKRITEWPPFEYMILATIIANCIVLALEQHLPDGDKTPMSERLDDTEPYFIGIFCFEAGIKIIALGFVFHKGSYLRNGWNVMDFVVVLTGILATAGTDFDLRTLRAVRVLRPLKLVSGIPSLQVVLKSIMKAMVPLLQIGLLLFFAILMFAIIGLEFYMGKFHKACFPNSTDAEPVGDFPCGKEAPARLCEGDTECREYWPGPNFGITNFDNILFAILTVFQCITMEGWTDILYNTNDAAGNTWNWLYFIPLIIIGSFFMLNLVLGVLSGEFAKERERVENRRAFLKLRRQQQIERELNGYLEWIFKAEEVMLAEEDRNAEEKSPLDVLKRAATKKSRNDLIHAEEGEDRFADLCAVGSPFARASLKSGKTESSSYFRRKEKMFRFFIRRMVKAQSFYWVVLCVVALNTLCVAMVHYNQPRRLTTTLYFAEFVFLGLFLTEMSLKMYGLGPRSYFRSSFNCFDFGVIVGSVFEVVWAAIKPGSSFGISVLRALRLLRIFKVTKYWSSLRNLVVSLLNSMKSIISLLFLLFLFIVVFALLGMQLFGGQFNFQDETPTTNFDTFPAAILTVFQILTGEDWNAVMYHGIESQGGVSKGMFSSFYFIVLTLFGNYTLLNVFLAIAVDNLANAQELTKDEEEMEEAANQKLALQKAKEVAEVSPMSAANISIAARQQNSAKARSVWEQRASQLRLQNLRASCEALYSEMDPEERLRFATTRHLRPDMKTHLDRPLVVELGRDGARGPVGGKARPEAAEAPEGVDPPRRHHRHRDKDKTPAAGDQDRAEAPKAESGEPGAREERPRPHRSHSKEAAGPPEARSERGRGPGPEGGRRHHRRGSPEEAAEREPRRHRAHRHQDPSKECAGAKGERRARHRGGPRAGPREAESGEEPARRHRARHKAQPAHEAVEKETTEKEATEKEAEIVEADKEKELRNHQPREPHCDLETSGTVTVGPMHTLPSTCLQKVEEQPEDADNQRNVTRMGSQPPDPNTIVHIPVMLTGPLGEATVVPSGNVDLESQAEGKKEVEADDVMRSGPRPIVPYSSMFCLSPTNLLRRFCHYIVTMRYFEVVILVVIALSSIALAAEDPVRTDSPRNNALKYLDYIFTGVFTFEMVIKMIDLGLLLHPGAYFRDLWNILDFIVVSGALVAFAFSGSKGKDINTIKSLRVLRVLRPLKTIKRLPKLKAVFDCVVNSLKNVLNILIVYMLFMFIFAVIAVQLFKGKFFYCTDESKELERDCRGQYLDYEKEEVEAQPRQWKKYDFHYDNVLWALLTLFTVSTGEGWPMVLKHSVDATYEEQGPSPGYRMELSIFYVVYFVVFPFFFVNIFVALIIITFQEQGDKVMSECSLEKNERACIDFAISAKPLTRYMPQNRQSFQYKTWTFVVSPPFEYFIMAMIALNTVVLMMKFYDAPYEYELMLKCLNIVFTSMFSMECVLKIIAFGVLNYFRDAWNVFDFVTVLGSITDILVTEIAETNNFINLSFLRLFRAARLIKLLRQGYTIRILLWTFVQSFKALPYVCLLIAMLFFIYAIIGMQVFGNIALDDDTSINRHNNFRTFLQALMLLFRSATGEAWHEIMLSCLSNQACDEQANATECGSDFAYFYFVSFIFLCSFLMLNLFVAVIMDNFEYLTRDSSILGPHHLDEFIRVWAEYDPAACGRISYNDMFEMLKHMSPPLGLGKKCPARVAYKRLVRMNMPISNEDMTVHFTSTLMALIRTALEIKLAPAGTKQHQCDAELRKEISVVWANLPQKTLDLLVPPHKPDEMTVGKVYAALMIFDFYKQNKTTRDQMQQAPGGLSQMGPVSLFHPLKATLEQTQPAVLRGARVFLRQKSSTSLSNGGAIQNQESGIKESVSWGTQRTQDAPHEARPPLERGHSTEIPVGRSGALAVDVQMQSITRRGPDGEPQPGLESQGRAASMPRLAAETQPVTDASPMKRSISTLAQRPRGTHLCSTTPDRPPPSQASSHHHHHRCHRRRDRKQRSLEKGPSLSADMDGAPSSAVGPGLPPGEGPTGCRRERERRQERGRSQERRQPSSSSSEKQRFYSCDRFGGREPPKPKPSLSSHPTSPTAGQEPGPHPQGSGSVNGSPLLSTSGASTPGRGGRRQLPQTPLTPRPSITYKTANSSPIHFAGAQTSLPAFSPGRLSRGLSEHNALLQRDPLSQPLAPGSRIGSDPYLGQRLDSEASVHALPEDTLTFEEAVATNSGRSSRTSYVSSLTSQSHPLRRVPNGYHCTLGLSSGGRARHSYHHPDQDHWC
Sequence of Human Cav 2.2 channels (P54289 25-1103 partner): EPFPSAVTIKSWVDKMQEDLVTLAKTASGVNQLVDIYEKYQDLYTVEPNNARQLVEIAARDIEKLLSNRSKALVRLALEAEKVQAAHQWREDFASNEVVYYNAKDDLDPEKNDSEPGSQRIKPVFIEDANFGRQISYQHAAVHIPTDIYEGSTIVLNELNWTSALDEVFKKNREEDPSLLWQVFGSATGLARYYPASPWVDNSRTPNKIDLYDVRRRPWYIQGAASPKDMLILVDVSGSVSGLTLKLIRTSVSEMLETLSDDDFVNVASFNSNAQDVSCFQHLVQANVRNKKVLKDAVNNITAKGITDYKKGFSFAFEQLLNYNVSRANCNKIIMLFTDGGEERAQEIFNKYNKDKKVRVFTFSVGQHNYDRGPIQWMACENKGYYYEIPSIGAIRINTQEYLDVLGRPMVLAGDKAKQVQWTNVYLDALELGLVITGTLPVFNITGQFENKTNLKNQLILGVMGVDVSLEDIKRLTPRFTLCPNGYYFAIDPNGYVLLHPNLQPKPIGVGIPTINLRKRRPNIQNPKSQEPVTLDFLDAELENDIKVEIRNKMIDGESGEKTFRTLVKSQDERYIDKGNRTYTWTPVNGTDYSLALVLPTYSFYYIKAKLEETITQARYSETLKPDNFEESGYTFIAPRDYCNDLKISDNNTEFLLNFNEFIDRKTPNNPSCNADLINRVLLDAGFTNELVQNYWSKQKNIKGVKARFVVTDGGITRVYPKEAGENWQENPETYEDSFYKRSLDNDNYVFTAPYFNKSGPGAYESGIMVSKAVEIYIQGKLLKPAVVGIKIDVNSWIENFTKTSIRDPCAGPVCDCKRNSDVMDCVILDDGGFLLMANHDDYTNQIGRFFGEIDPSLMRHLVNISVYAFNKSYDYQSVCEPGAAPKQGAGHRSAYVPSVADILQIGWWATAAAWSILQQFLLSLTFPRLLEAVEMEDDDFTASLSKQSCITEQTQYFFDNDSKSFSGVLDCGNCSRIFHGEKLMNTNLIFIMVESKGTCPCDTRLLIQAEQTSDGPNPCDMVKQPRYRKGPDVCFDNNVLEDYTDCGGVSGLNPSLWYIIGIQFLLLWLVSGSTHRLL
Sequence of Human Cav 2.2 channels (P54284 whole entry partner): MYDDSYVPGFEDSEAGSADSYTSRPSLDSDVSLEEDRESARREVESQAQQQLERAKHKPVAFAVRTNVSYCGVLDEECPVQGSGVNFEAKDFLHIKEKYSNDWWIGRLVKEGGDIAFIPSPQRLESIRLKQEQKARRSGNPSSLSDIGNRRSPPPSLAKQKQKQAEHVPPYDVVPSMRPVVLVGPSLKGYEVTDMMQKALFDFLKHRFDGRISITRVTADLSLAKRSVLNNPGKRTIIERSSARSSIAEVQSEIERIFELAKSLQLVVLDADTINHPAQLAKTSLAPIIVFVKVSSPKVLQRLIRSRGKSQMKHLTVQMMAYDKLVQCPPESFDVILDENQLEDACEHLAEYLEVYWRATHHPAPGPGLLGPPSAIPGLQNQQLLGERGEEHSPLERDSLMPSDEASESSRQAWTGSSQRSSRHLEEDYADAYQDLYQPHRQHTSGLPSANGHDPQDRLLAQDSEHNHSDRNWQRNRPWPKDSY

SMILES	IC50 [1] [µM]	IC50 [2, 5] [µM]	IC50 [2, 6] [µM]	CAv2.2 IC50 Ratio closed/inact. ([2]; ratio closed/inactivated IC50)	IC50 [3, 7] [µM]	IC50 [3, 8] [µM]	IC50 [4, 9] [µM]	IC50 [4, 10] [µM]	CAv3.2 IC50 Ratio closed/inact. [4, 11]	CAv1.2 IC50 Ratio closed/inact. [3]	CAv3.2 IC50 Ratio closed/inact. ([4]; CAv3.2, ratio closed/inact.)	CAv2.2 IC50 Ratio closed/inact. ([2]; ratio closed/inact.)
CC(C)([C@H]1C[C@@H](NC(=O)c2ncc(C(F)(F)F)cc2S(C)(=O)=O)C1)S(=O)(=O)c1cc(F)cc(C(F)(F)F)c1 [Compound 584]	≥ 10	10	1.7	5.9	≥ 10	≥ 10	–	–	–	–	–	–
CC(C)S(=O)(=O)c1cc(C(F)(F)F)cnc1C(=O)N[C@H]1C[C@@H](C(C)(C)S(=O)(=O)c2cc(F)cc(C(F)(F)F)c2)C1 [Compound 586]	≥ 10	10	0.48	20.8	≥ 10	9.37	≥ 10	10	1	1.1	–	–
CC(C)([C@H]1C[C@@H](NC(=O)c2cc(C(F)(F)F)n[nH]2)C1)S(=O)(=O)c1cc(F)cc(C(F)(F)F)c1 [Compound 587]	≥ 10	5.55	0.72	7.7	≥ 10	4.85	6.56	3.6	1.8	2.1	–	–
CC(C)([C@H]1C[C@@H](NC(=O)c2ccc(Cl)c(F)c2)C1)S(=O)(=O)c1cc(F)cc(C(F)(F)F)c1 [Compound 589]	4.03	2.37	0.27	8.8	4.91	1.8	4.14	1.07	3.9	2.7	–	–
CC(C)([C@H]1C[C@@H](NC(=O)c2ccc(F)c(Cl)c2)C1)S(=O)(=O)c1cc(F)cc(C(F)(F)F)c1 [Compound 590]	6.85	2.83	0.34	8.3	5.33	1.7	4.3	1.37	3.1	3.1	–	–
CC(C)([C@H]1C[C@H](NC(=O)c2ncc(C(F)(F)F)cc2S(C)(=O)=O)C1)S(=O)(=O)c1cc(F)cc(C(F)(F)F)c1 [Compound 591]	≥ 10	10	1.15	8.7	–	≥ 10	–	–	–	–	–	–
CC(C)([C@H]1C[C@H](NC(=O)c2cc(C(F)(F)F)n[nH]2)C1)S(=O)(=O)c1cc(F)cc(C(F)(F)F)c1 [Compound 594]	≥ 10	6.08	0.52	11.7	–	–	9.23	2.35	–	–	–	–
N[C@H]1CCCCC1C(=O)NC[C@H]1C[C@H](S(=O)(=O)c2cc(F)cc(C(F)(F)F)c2)C1 (some centres unmarked) [Compound 711]	≥ 10	10	5.16	1.9	–	–	–	10	–	–	–	–
NC1(CC(=O)N2CC(CS(=O)(=O)c3cc(F)cc(C(F)(F)F)c3)C2)CCCCC1 [Compound 749]	≥ 10	–	≥ 10	–	–	–	≥ 10	10	–	–	1	–
CC(C)([C@H]1C[C@@H](CNc2ccc(Cl)c(F)c2)C1)S(=O)(=O)c1cccc(C(F)(F)F)c1 [Compound 754]	≥ 10	–	7.22	–	–	–	–	10	–	–	–	1.4
